Activity calls are given as the source filed them. The calls are words filed in the database; no cut-off is given here.
Experiments:
[1] = test system: Oocyte; assay: Activity at rat GABAA alpha-1H101Cbeta-2-gamma-2 mutant receptor expressed in xenopus oocytes assessed as change in GABA-induced current amplitude at 10 uM after 1 min exposure to GABA by two electrode voltage clamp method; type: cell-based
[2] = test system: Oocyte; assay: (§1) Activity at rat […] GABAA alpha-1V202Cbeta-2-gamma-2 mutant receptor expressed in xenopus oocytes assessed as GABA-elicited response by two electrode voltage clamp method relative to control; type: cell-based
[3] = as §1; type: cell-based; conditions: Oocyte
[4] = test system: Oocyte; assay: (§2) Activity at rat […] GABAA alpha-1G157Cbeta-2-gamma-2 mutant receptor expressed in xenopus oocytes assessed as GABA-elicited response by two electrode voltage clamp method relative to control; type: cell-based
[5] = as §2; type: cell-based; conditions: Oocyte
[6] = test system: Oocyte; assay: (§3) Activity at rat […] GABAA alpha-1V211Cbeta-2-gamma-2 mutant receptor expressed in xenopus oocytes assessed as GABA-elicited response by two electrode voltage clamp method relative to control; type: cell-based
[7] = as §3; type: cell-based; conditions: Oocyte
[8] = test system: Oocyte; assay: (§4) Activity at rat […] GABAA alpha-1H101Cbeta-2-gamma-2 mutant receptor expressed in xenopus oocytes assessed as GABA-elicited response by two electrode voltage clamp method relative to control; type: cell-based
[9] = as §4; type: cell-based; conditions: Oocyte
[10] = test system: Oocyte; assay: Activity at rat GABAA alpha-1H101Cbeta-2-gamma-2 mutant receptor expressed in xenopus oocytes assessed as change in GABA-induced current amplitude at 1 uM after 1 min exposure to GABA by two electrode voltage clamp method; type: cell-based
[11] = test system: Oocyte; assay: Activity at rat GABAA alpha-1G157Cbeta-2-gamma-2 mutant receptor expressed in xenopus oocytes assessed as change in GABA-induced current amplitude at 1 uM after 1 min exposure to GABA by two electrode voltage clamp method; type: cell-based
[12] = test system: HEK293; assay: Displacement of [3H]Ro15-1788 from rat GABAA alpha-1H101Cbeta-2-gamma-2 mutant receptor expressed in HEK293 cells assessed as residual binding at 10 nM after 1 hr by liquid scintillation counting; type: cell-based
[13] = test system: HEK293; assay: Displacement of [3H]Ro15-1788 from rat GABAA alpha-1V211Cbeta-2-gamma-2 mutant receptor expressed in HEK293 cells assessed as residual binding at 100 nM after 1 hr by liquid scintillation counting; type: cell-based
[14] = test system: HEK293; assay: Displacement of [3H]Ro15-1788 from rat GABAA alpha-1H101Cbeta-2-gamma-2 mutant receptor expressed in HEK293 cells assessed as residual binding at 100 nM after 1 hr by liquid scintillation counting; type: cell-based
[15] = test system: Oocyte; assay: Activity at rat GABAA alpha-1H101Cbeta-2-gamma-2 mutant receptor expressed in xenopus oocytes assessed as change in GABA-induced current amplitude at 500 nM by two electrode voltage clamp method in presence of L-cysteine; type: cell-based
[16] = Displacement of [3H]Ro15-1788 from rat GABAA alpha-1-beta-2-gamma-2S receptor expressed in HEK293 cells by liquid scintillation counting; type: cell-based
[17] = test system: HEK293; assay: Displacement of [3H]Ro15-1788 from rat GABAA alpha-1H101Cbeta-2-gamma-2 mutant receptor expressed in HEK293 cells assessed as residual binding after pretreatment of L-cysteine at 30 nM after 1 hr by liquid scintillation counting; type: cell-based
[18] = test system: HEK293; assay: Displacement of [3H]Ro15-1788 from rat GABAA alpha-1H101Cbeta-2-gamma-2 mutant receptor expressed in HEK293 cells assessed as residual binding at 10 nM after 1 hr by liquid scintillation counting in presence of Ro15-1788; type: cell-based
[19] = target: T1, Gamma-aminobutyric acid receptor subunit alpha-1 (Homo sapiens) (UniProt P14867); conditions: Rattus norvegicus; Oocyte; 1 uM
T1 sequence (whole entry): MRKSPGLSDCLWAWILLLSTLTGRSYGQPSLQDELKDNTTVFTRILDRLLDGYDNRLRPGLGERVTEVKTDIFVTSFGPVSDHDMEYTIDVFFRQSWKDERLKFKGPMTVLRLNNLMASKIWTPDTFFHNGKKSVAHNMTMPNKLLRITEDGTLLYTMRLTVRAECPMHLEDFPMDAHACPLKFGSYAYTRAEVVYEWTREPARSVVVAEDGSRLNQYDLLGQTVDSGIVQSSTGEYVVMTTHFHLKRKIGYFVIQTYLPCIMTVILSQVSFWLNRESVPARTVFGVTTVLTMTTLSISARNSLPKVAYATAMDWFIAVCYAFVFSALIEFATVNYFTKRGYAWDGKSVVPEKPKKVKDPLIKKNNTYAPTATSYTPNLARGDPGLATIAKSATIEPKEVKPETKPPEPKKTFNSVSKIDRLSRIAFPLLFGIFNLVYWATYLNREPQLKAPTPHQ
Description: Activity at rat wild type GABAA alpha-1-beta-2-gamma-2 receptor expressed in xenopus oocytes assessed as change in GABA-induced current amplitude at 1 uM after 5 min exposure to GABA by two electrode voltage clamp method

[20] = target: T1, Gamma-aminobutyric acid receptor subunit alpha-1 (Homo sapiens); conditions: Rattus norvegicus; Oocyte; 10 uM
Description: Activity at rat wild type GABAA alpha-1-beta-2-gamma-2 receptor expressed in xenopus oocytes assessed as change in GABA-induced current amplitude at 10 uM after 5 min by two electrode voltage clamp method

[21] = target: T1, Gamma-aminobutyric acid receptor subunit alpha-1 (Homo sapiens); conditions: Rattus norvegicus; Oocyte; 1 uM; remark: listed apart in the source
Description: Activity at rat wild type GABAA alpha-1-beta-2-gamma-2 receptor expressed in xenopus oocytes assessed as change in GABA-induced current amplitude at 1 uM after 1 min exposure to GABA by two electrode voltage clamp method

[22] = test system: HEK293; assay: Displacement of [3H]Ro15-1788 from rat GABAA alpha-1H101Cbeta-2-gamma-2 mutant receptor expressed in HEK293 cells assessed as residual binding at 10 nM after 1 hr by liquid scintillation counting in presence of flunitrazepam; type: cell-based
[23] = test system: Oocyte; assay: Activity at rat GABAA alpha-1H101Cbeta-2-gamma-2 mutant receptor expressed in xenopus oocytes assessed as change in GABA-induced current amplitude first phase stimulation at 3 uM by two electrode voltage clamp method; type: cell-based
[24] = Displacement of [3H]Ro15-1788 from rat GABAA alpha-1H101Cbeta-2-gamma-2 mutant receptor expressed in HEK293 cells after 1 hr assessed as residual binding by liquid scintillation counting; type: cell-based
[25] = test system: HEK293; assay: Displacement of [3H]Ro15-1788 from rat GABAA alpha-1H101Cbeta-2-gamma-2 mutant receptor expressed in HEK293 cells assessed as residual binding without pretreatment of L-cysteine at 30 nM after 1 hr by liquid scintillation counting; type: cell-based
[26] = test system: HEK293; assay: Displacement of [3H]Ro15-1788 from rat GABAA alpha-1G157Cbeta-2-gamma-2 mutant receptor expressed in HEK293 cells assessed as residual binding at 100 nM after 1 hr by liquid scintillation counting; type: cell-based
[27] = test system: Oocyte; assay: Activity at rat GABAA alpha-1V202Cbeta-2-gamma-2 mutant receptor expressed in xenopus oocytes assessed as change in GABA-induced current amplitude at 1 uM after 1 min exposure to GABA by two electrode voltage clamp method; type: cell-based
[28] = test system: Oocyte; assay: Activity at rat GABAA alpha-1H101Cbeta-2-gamma-2 mutant receptor expressed in xenopus oocytes assessed as change in GABA-induced current amplitude at 10 nM to 1 uM after 1 min exposure to GABA by two electrode voltage clamp method; type: cell-based
[29] = test system: Oocyte; assay: Activity at rat GABAA alpha-1H101Cbeta-2-gamma-2 mutant receptor expressed in xenopus oocytes assessed as change in GABA-induced current amplitude second phase stimulation at 3 uM by two electrode voltage clamp method; type: cell-based
[30] = test system: HEK293; assay: Displacement of [3H]Ro15-1788 from rat GABAA alpha-1V202Cbeta-2-gamma-2 mutant receptor expressed in HEK293 cells assessed as residual binding at 100 nM after 1 hr by liquid scintillation counting; type: cell-based
[31] = test system: Oocyte; assay: Activity at rat GABAA alpha-1V211Cbeta-2-gamma-2 mutant receptor expressed in xenopus oocytes assessed as change in GABA-induced current amplitude at 1 uM after 1 min exposure to GABA by two electrode voltage clamp method; type: cell-based

In the case of `Cc1ccc(-c2nc3ccc(C)cn3c2CC(=O)N(C)C)cc1` [ZOLPIDEM], the inhibition [1] is reported as 96%, the max activation [2] is reported as 369% and the EC50 [3] is reported as 2750 nM. It also gave a max activation [4] of 427%, an EC50 [5] of 2630 nM and a max activation [6] of 127%. The EC50 [7] was 341 nM, the max activation [8] was 162% and the EC50 [9] was 1180 nM.

`CCOC(=O)c1ncn2c1CN(C)C(=O)c1cc(F)ccc1-2` [FLUMAZENIL] gave an inhibition [10] of 22%, a max activation [2] of 1% and a max activation [4] of -2%. It also gave a max activation [6] of 5%, a max activation [8] of 22% and an EC50 [9] of 30 nM.

Work on `CCOC(=O)c1ncn2c1CN(C)C(=O)c1cc(N=[N+]=[N-])ccc1-2` [Ro-154513] yielded a max activation [2] of 9%, a max activation [4] of 36% and an EC50 [5] of 32 nM. The max activation [6] was -23%, the EC50 [7] was 44 nM and the max activation [8] was 40%. For the same compound, the EC50 [9] was 17 nM.

Work on `CCOC(=O)c1ncn2c1CN(C)C(=O)c1cc(N=C=S)ccc1-2` yielded an inhibition [11] of 88%, an Activity [12] of 29% and an Activity [13] of 50%. For the same compound, the Activity [14] was 85%, the Activity [15] was “Active” and the Ki [16] was 10 nM. The Activity [17] was 82%, the Activity [18] was 73% and the inhibition [19] was 4%. For the same compound, the inhibition [20] was 8%, the inhibition [21] was 3% and the Activity [22] was 64%. The inhibition [23] was 53%, the Kd [24] was 0.9 nM and the Activity [25] was 18%. For the same compound, the Activity [26] was 50%, the inhibition [27] was 71% and the max activation [2] was 16%. The EC50 [3] was 668 nM, the max activation [4] was 30% and the EC50 [5] was 34 nM. For the same compound, the Activity [28] was 362 nM, the inhibition [29] was 47% and the Activity [30] was 50%. For the same compound, the inhibition [31] was 5%, the max activation [6] was over 140% and the EC50 [7] was over 2000 nM. The max activation [8] was 90% and the EC50 [9] was 17 nM.

From ChEMBL document CHEMBL1156487, “Proximity-accelerated chemical coupling reaction in the benzodiazepine-binding site of gamma-aminobutyric acid type A receptors: superposition of different allosteric modulators” (J Biol Chem, 2007)
